Measurements published in patent US20240260573A1, “HEAT TOLERANCE-INDUCING AGENT FOR PLANTS AND METHOD FOR INDUCING HEAT TOLERANCE OF PLANTS” (AGC Inc., priority 2021, published 2024).

Assays:
[1] = Measurement of active ingredient support ratio (solvent extraction / gas chromatography); format: physicochemical
Description: First, 5 g of a mixed solvent of chloroform:methanol=9:1 (volume ratio) was added to the vial containing the sample, and the mixture was stirred for one minute to extract the supported 2-hexenal. Hexadecane was then added as an internal standard, and the resulting mixture was filtered. The thus obtained filtrate (the extract solution containing the internal standard) was analyzed by gas chromatography, and the amount (mg) of supported 2-hexenal was calculated using a calibration curve prepared in advance using hexadecane as an internal standard. The support ratio (%) of 2-hexenal within 100% of the sample was determined from the calculated supported amount (mg) and the mass of the sample inside the vial.
With the exception that chloroform was added to the vial containing the sample to dissolve the sample, hexadecane was added to the resulting solution as an internal standard, and analysis was then conducted by gas chromatography (7890A apparatus manufactured by Agilent Technologies, Inc.), the support ratio (%) of 2-hexenal within 100% of the sample was determined in the same manner as that described above in [Evaluation 1a].
In Example 12, because 2-hexenal was used alone, the initial 2-hexenal support ratio was deemed to be 100%.
With the exception of using 3-hepten-2-one instead of 2-hexenal as the active ingredient, evaluations were conducted in the same manner as Example 1. […]

[2] = Measurement of active ingredient retention rate after 7 days open storage at 23° C. or 50° C.; format: physicochemical; conditions: for residual active ingredient after storage (in words): after 7 days storage at either 23° C. or 50° C.
Description: The vial containing the sample was stored, without a lid attached, in an environment at either 23° C. or 50° C. for a period of 7 days. Following this storage period, the support ratio (%) of 2-hexenal was determined in the same manner as that described above in [Evaluation 1a].
Based on the measurement results, the 2-hexenal retention rates following storage at 23° C. and at 50° C. were each calculated using the formula below. In the formula, the [initial 2-hexenal content] represents the value determined in the above “Measurement of 2-Hexenal Support Ratio”.
2-Hexenal retention rate (%)=2-hexenal support ratio (%) after storage/initial 2-hexenal support ratio (%)×100
The vial containing the sample was stored in an environment at either 23° C. or 50° C. for a period of 7 days. Following this storage period, the support ratio (%) of 2-hexenal was determined in the same manner as that described above in [Evaluation 2a].
Based on the measurement result, the 2-hexenal retention rate (%) was determined in the same manner as that described above in [Evaluation 1b].
The vial containing the sample was stored in an environment at either 23° C. or 50° C. for a period of 7 days. Following this storage period, the sample mass (g) remaining in the vial was measured, and this value was deemed the 2-hexenal support ratio (%) after storage.
With the exception of using 3-hepten-2-one instead of 2-hexenal as the active ingredient, evaluations were conducted in the same manner as Example 1.
An agent prepared by mixing trioxane and 3-hepten-2-one (in a mass ratio of 100:0.35) and then freeze drying the mixture was used as a heat tolerance-inducing agent, and evaluations were conducted in the same manner as Example 11.
Example 15 used 3-hepten-2-one alone as a heat tolerance-inducing agent. Evaluations were conducted in the same manner as Example 12.

[3] = sample for 23° C. storage, before storage
[4] = sample for 50° C. storage, before storage

SMILES | 2-hexenal support ratio ([1]; 2-hexenal used alone, initial support ratio deemed to be 100%) [%] | 2-hexenal support amount, Storage at 23° C., After 7 days ([2]; 23° C., 7 days, vial without lid) [mg] | 2-hexenal support amount, Storage at 50° C., After 7 days ([2]; 50° C., 7 days, vial without lid) [mg] | 2-hexenal retention rate 23° C. ([2]; after 7 days storage at 23° C.) [%] | 2-hexenal retention rate 50° C. ([2]; after 7 days storage at 50° C.) [%] | residual active ingredient after storage (in words) [2] | 2-hexenal support amount, Storage at 23° C., Initial [2, 3] [mg] | 2-hexenal support amount, Storage at 50° C., Initial [2, 4] [mg] | 3-hepten-2-one support ratio ([1]; 3-hepten-2-one used alone, evaluated as Example 12 (deemed 100%)) [%] | 3-hepten-2-one support amount, Storage at 23° C., After 7 days ([2]; 23° C., 7 days) [mg] | 3-hepten-2-one support amount, Storage at 50° C., After 7 days ([2]; 50° C., 7 days) [mg] | 3-hepten-2-one retention rate 23° C. ([2]; after 7 days storage at 23° C.) [%] | 3-hepten-2-one retention rate 50° C. ([2]; after 7 days storage at 50° C.) [%] | 3-hepten-2-one support amount, Storage at 23° C., Initial [2, 3] [mg] | 3-hepten-2-one support amount, Storage at 50° C., Initial [2, 4] [mg]
CCCC=CC=O [Example 12, 2-hexenal] | 100 | 0 | 0 | 0 | 0 | no residual active ingredient was retained | 13 | 12.5 |  |  |  |  |  |  | 
CCCC=CC(C)=O [Example 15, 3-hepten-2-one] |  |  |  |  |  | no residual active ingredient was retained |  |  | 100 | 0 | 0 | 0 | 0 | 11.5 | 10.7
